US11987647B2, “Cyclic cell-penetrating peptides with one or more hydrophobic residues” (Ohio State Innovation Foundation, priority 2018, dated 2024)
[ ]: non-standard residue; d: D form. The star is where a group is joined. Decanoyl = CCCCCCCCCC(=O)*; Orn = NCCC[C@H](N)C(=O)O; Dap = NC[C@H](N)C(=O)O

Columns and labels:
Format in all cases: cell-based
HeLa cells [1] = assay: Cytosolic entry efficiency of NF-labelled peptides by flow cytometry; details: for Cellular Entry Efficiency In 10% FBS: 2 h, relative to CPP12 (100%); for CPP activity compared with CPP1-4 (in words): variant of CPP1-4; for sensitivity to serum concentration: 10% vs 1% FBS, compared with CPP9 or CPP12
Method: All of the peptides were labeled with naphthofluorescein (NF) at the Gln side chain through a long, flexible linker, miniPEG-Lys. HeLa cells were treated with 5 μM peptide for 2 h in the presence of 10% FBS and the cytosolic entry of the peptides was quantitated by flow cytometry analysis.
To determine cellular uptake efficiency of the CPPs disclosed herein, HeLa cells were cultured in 12-well plates (1.5×10^5 cells per well) overnight. The cells were incubated for 2 h with […] naphthofluorescein (NF)-labelled peptide in cellular media. At the end of incubation, the cells were washed with DPBS twice, detached from the plate with 0.25% trypsin, diluted into clear DMEM, pelleted at 250 g for 5 min, washed twice with DPBS, resuspended in DPBS, and analyzed on a BD FACS LSR II flow cytometer. For NF-labelled peptides, a 633-nm laser was used for excitation and the fluorescence emission was analyzed in the APC channel. Absolute cellular uptake efficiency was determined by comparing the concentration (via fluorescence intensity) of the CPP in the cytosol to the concentration in the extracellular medium. Relative cellular uptake efficiency was determined by comparing the cytosolic concentration of the CPP to that cytosolic concentration of the control CPP cyclo(FΦRRRRQ).

HeLa cells [2] = assay: as above; details: for Cellular Entry Efficiency In 1% FBS: relative to CPP12 (100%); for cytosolic entry efficiency: reduced serum concentration (1% FBS), CPP12 most active
HeLa cells [3] = assay: Cellular entry by live-cell confocal imaging of FITC-labelled peptides; details: 5 μM FITC-labelled peptide, 2 h
Method: CPP1-15 and CPP1-20 were labeled with FITC via a miniPEG-Lys linker. HeLa cells were treated with 5 μM peptide for 2 h, washed, and imaged by live-cell confocal imaging. […] Additional experiments are ongoing to further examine their mechanism of cell entry.

HeLa cells [4] = assay: Cytotoxicity by the MTT assay; details: no label, up to 40 μM concentration
Text: CPP1-15 (no label) was used as a representative and tested against HeLa cells for potential cytotoxicity by the MTT assay.

[5] = Table 4, 5 μM NF-labelled peptide, 10% FBS
[6] = Table 7, 5 μM NF-labelled peptide, 10% FBS

Row | Substance | Cellular Entry Efficiency In 10% FBS (HeLa cells [1]; [5]) [%] | Cellular Entry Efficiency In 10% FBS (HeLa cells [1]; [6]) [%] | Cellular Entry Efficiency In 1% FBS (HeLa cells [2]; Table 4, NF-labelled peptide) [%] | Cellular Entry Efficiency In 1% FBS (HeLa cells [2]; Table 7, NF-labelled peptide) [%] | CPP activity compared with CPP1-4 (in words) (HeLa cells [1]) | sensitivity to serum concentration (HeLa cells [1]) | cellular entry (confocal imaging) (HeLa cells [3]) | cytosolic entry efficiency (HeLa cells [2]) [%] | cytotoxicity (HeLa cells [4]) | improvement in activity (HeLa cells [1]; 10% FBS, relative to CPP1-4) [fold] | fold more active than CPP9 and CPP12 (HeLa cells [1]; in the presence of 10% FBS) [fold] | activity, fold higher than CPP1 (HeLa cells [1]; 10% FBS, versus CPP1) [fold]
1 | cyclo(FfΦRrRrQ) [CPP12, reference compound] | 100 | 100 | 100 | 100 |  |  |  |  |  |  |  | 
2 | cyclo(Dap^DecaRRRAQ) (cyclo([Dap](Decanoyl)RRRAQ); SMILES CCCCCCCCCC(=O)NC[C@@H]1NC(=O)[C@H](CCC(N)=O)NC(=O)[C@H](C)NC(=O)[C@H](CCCNC(=N)N)NC(=O)[C@H](CCCNC(=N)N)NC(=O)[C@H](CCCNC(=N)N)NC1=O) [CPP1-13] | 32 ± 2 | 32 ± 2 | 33 | 33 | reduced the CPP activity |  |  |  |  |  |  | 
3 | cyclo(Lys^DecaRRRRQ) (cyclo(K(Decanoyl)RRRRQ); SMILES CCCCCCCCCC(=O)NCCCC[C@@H]1NC(=O)[C@H](CCC(N)=O)NC(=O)[C@H](CCCNC(=N)N)NC(=O)[C@H](CCCNC(=N)N)NC(=O)[C@H](CCCNC(=N)N)NC(=O)[C@H](CCCNC(=N)N)NC1=O) [CPP1-15] | 76 ± 21 | 76 ± 21 | 44 ± 11 | 44 ± 11 | slightly increased the CPP activity | lower sensitivity to serum concentration | entered HeLa cells efficiently | 43 | did not show significant cytotoxicity |  |  | 
4 | cyclo(fΦRrRrQ) [CPP9, reference compound] | 94 ± 7 | 94 ± 7 | 32 ± 6 | 32 ± 6 |  |  |  | 32 |  |  |  | 
5 | cyclo(Dap^DecaRRRRRQ) (cyclo([Dap](Decanoyl)RRRRRQ); SMILES CCCCCCCCCC(=O)NC[C@@H]1NC(=O)[C@H](CCC(N)=O)NC(=O)[C@H](CCCNC(=N)N)NC(=O)[C@H](CCCNC(=N)N)NC(=O)[C@H](CCCNC(=N)N)NC(=O)[C@H](CCCNC(=N)N)NC(=O)[C@H](CCCNC(=N)N)NC1=O) [CPP1-14] | 12 ± 1 | 12 ± 1 | 21 | 21 | greatly decreased the CPP activity |  |  |  |  |  |  | 
6 | cyclo(Asp^DecyRRRRQ) (cyclo(DRRRRQ); not fully specified (residue 1); printed as cyclo(Asp^DecyRRRRQ)) [CPP1-20] | 281 ± 59 | 281 ± 59 | 94 ± 41 | 94 ± 41 |  | lower sensitivity to serum concentration | entered HeLa cells efficiently | 94 |  | ~5 | −3 | 
7 | cyclo(Dap^DecaRrRrQ) [CPP1-10] | 21 ± 9 | 21 ± 9 | 24 | 24 | substantially decreased the CPP activity |  |  |  |  |  |  | 
8 | cyclo(Dap^DecaARRRQ) (cyclo([Dap](Decanoyl)ARRRQ); SMILES CCCCCCCCCC(=O)NC[C@@H]1NC(=O)[C@H](CCC(N)=O)NC(=O)[C@H](CCCNC(=N)N)NC(=O)[C@H](CCCNC(=N)N)NC(=O)[C@H](CCCNC(=N)N)NC(=O)[C@H](C)NC1=O) [CPP1-12] | 26 ± 4 | 26 ± 4 | 34 | 34 | reduced the CPP activity |  |  |  |  |  |  | 
9 | cyclo(Dap^DecaRRRRQ) (cyclo([Dap](Decanoyl)RRRRQ); SMILES CCCCCCCCCC(=O)NC[C@@H]1NC(=O)[C@H](CCC(N)=O)NC(=O)[C@H](CCCNC(=N)N)NC(=O)[C@H](CCCNC(=N)N)NC(=O)[C@H](CCCNC(=N)N)NC(=O)[C@H](CCCNC(=N)N)NC1=O) [CPP1-4] | 57 ± 19 | 57 ± 19 |  |  |  | lower sensitivity to serum concentration |  | 44 |  |  |  | 2.5
10 | cyclo(Orn^DecaRRRRQ) (cyclo([Orn](Decanoyl)RRRRQ); SMILES CCCCCCCCCC(=O)NCCC[C@@H]1NC(=O)[C@H](CCC(N)=O)NC(=O)[C@H](CCCNC(=N)N)NC(=O)[C@H](CCCNC(=N)N)NC(=O)[C@H](CCCNC(=N)N)NC(=O)[C@H](CCCNC(=N)N)NC1=O) [CPP1-17] | 115 ± 32 | 115 ± 32 | 58 ± 22 | 58 ± 22 | slightly increased the CPP activity | lower sensitivity to serum concentration |  | 58 |  |  |  | 
11 | cyclo(Dap^DecaRRRQ) (cyclo([Dap](Decanoyl)RRRQ); SMILES CCCCCCCCCC(=O)NC[C@@H]1NC(=O)[C@H](CCC(N)=O)NC(=O)[C@H](CCCNC(=N)N)NC(=O)[C@H](CCCNC(=N)N)NC(=O)[C@H](CCCNC(=N)N)NC1=O) [CPP1-16] | 3.0 ± 0.1 | 3.0 ± 0.1 | 25 | 25 | greatly decreased the CPP activity |  |  |  |  |  |  | 
12 | cyclo(Dap^DecarRrRQ) [CPP1-11] | 20 ± 6 | 20 ± 6 | 29 | 29 | substantially decreased the CPP activity |  |  |  |  |  |  | 
